Test results published in US12501868B2, “Haploid induction compounds and methods for use thereof” (WIMI BIOTECHNOLOGY (HAINAN) CO., LTD., priority 2020, dated 2025).
Values joined by “and” are separate entries in the source; they are usually repeats but may differ in a detail not shown here. Equal values may be shown once. Read-outs that look alike come from different tables or passages of the source.

Legend:
maize pollen = assay: Relative ROS level in maize pollen (ROS detection kit, fluorometry); assay type: cell-based
Procedure: The red channel or bright channel of the photo was analyzed, and the ROS level was represented by the light intensity of the wavelength with the largest proportion. The relative ROS level in a reproductive tissue refers to a ratio of the ROS level of the reproductive tissue to the ROS level in the control group (40% sucrose).
Taking maize pollen as an example, the experiment of a series of compounds that may affect the ROS level in the maize pollen was tested.
All reagents are dissolved in 40% sucrose. The relative ROS levels were from 6-7 measurements.

[1] = tested on: sperm cells of maize pollen; assay: DNA fragmentation in sperm cells of treated maize pollen (single sperm amplified sequencing); conditions: treated pollen vs 40% sucrose control
Excerpt: DNA fragmentation (which is one of the characteristics of haploid) in the treated pollen is detected.
Release sperm cells on the slide and separate a single sperm for amplified sequencing (Sigma WGA4 kit).

[2] = bright channel, ratio to 40% sucrose control, final concentration as listed per compound in Table 5, 6-7 measurements
[3] = red channel, ratio to 40% sucrose control, final concentration as listed per compound in Table 5, 6-7 measurements

Compound	Relative ROS Level Bright (maize pollen; [2])	Relative ROS Level Red (maize pollen; [3])	other results
1,2-Octadecyl Phosphatidylinositol Di-4,5-Phosphate [Compound 5]	1.06 ± 0.06	1.05 ± 0.07	
[Ca+2].[Cl-].[Cl-] [Compound 1, calcium chloride]			Relative ROS Level Bright (maize pollen): 4.03 ± 0.24 and 3.11 ± 0.23; Relative ROS Level Red (maize pollen): 3.81 ± 0.21 and 3.01 ± 0.23; effect on relative ROS level (in words) (maize pollen): most obvious effect on the increase of ROS level
O=[N+]([O-])[O-].O=[N+]([O-])[O-].[Ca+2] [Compound 2, calcium nitrate]			Relative ROS Level Bright (maize pollen; bright channel, final concentration 1.83 mM, ratio to 40% sucrose control): 2.57 ± 0.15; Relative ROS Level Bright (maize pollen; bright channel, final concentration 18.3 mM, ratio to 40% sucrose control): 3.08 ± 0.12; Relative ROS Level Red (maize pollen; red channel, final concentration 1.83 mM, ratio to 40% sucrose control): 2.55 ± 0.21; Relative ROS Level Red (maize pollen; red channel, final concentration 18.3 mM, ratio to 40% sucrose control): 2.97 ± 0.12
Nc1ncnc2c1ncn2[C@@H]1O[C@@H]2COP(=O)(O)O[C@H]2[C@H]1O [Compound 3, cyclic Adenosine Monophosphate]	2.04 ± 0.15	1.97 ± 0.10	
C/C1=C\[C@H](C)C[C@H](C)OC(=O)C[C@H](c2ccc(O)cc2)NC(=O)[C@@H](Cc2c(Br)[nH]c3ccccc23)N(C)C(=O)[C@H](C)NC(=O)[C@@H](C)C1 [Compound 6, Jasplakinolide]	1.79 ± 0.16	1.77 ± 0.16	
CC(=O)OC(C)(C)/C=C/C(=O)[C@](C)(O)[C@H]1[C@H](O)C[C@@]2(C)[C@@H]3CC=C4[C@@H](C=C(O)C(=O)C4(C)C)[C@]3(C)C(=O)C[C@]12C [Compound 7, Cucurbitacin E]	1.37 ± 0.02	1.31 ± 0.08	
C/C1=C/C(=O)O[C@@H]2C[C@@H](CC[C@H](C)/C=C\CC1)O[C@@](O)([C@@H]1CSC(=O)N1)C2 [Compound 8, Latrunculin B]	1.64 ± 0.10	1.66 ± 0.06	
C/C1=C/C(=O)O[C@@H]2C[C@@H](CC[C@H](C)/C=C\C=C\CC1)O[C@@](O)([C@@H]1CSC(=O)N1)C2 [Compound 9, Latrunculin A]	1.37 ± 0.00	1.35 ± 0.05	
Cc1ccc2c(c1)C(=O)C1(O)CCN(c3ccccc3)C1=N2 (stereo not shown) [Compound 10, Blebbistatin]	1.37 ± 0.14	1.35 ± 0.17	
c1ccc2c(c1)[I+]c1ccccc1-2 [Compound 11, Diphenyl iodide chloride]	1.53 ± 0.14	1.55 ± 0.13	
Cn1cc[nH]c1=S [Compound 12, Methimazole]			Proportion of fragmentation compared with control group [1]: higher proportion of fragmentation
O=C(NCCN1CCC(n2c(=O)[nH]c3ccccc32)CC1)c1cc2cc(F)ccc2[nH]1 [Compound 13]	1.35 ± 0.06	1.34 ± 0.07	
S=C([S-])OC1CC2CC1C1CCCC21.[K+] (stereo not shown) [Compound 16]	1.12 ± 0.10	1.14 ± 0.10	
O=P(O)(O)O[C@@H]1[C@H](O)[C@H](O)[C@@H](OP(=O)(O)O)[C@H](OP(=O)(O)O)[C@H]1O [Compound 20, IP3(1,4,5)]	0.60 ± 0.02	0.67 ± 0.03	
O=C(O)CC(O)(CC(=O)O)C(=O)O [Compound 21, Citric acid]	0.74 ± 0.06	0.78 ± 0.02	
OO [Hydrogen Peroxide, Hydrogen peroxide]			Proportion of fragmentation compared with control group [1]: higher proportion of fragmentation
Lecithin PC_18:1 [Compound 15]	1.21 ± 0.18	1.19 ± 0.17	
PA_18:1 [Compound 25]	0.33 ± 0.02	0.34 ± 0.01	
PE_18:1 [Compound 23]	0.92 ± 0.08	0.98 ± 0.04	
PG_18:1 [Compound 26]	0.32 ± 0.00	0.33 ± 0.00	
PI(3)P_18:1 [Compound 19]	0.62 ± 0.06	0.63 ± 0.05	
PI(3,5)PP_18:1 [Compound 17]	0.82 ± 0.11	0.88 ± 0.08	
PI(4)P_18:1 [Compound 18]	0.82 ± 0.10	0.84 ± 0.08	
PI_18:1 [Compound 24]	0.81 ± 0.05	0.88 ± 0.06	
PS_18:1 [Compound 22]	0.65 ± 0.02	0.63 ± 0.05	
choline phosphate [Compound 14]			Relative ROS Level Bright (maize pollen): 1.27 ± 0.11; Relative ROS Level Red (maize pollen): 1.28 ± 0.08
inositol triphosphate [Compound 4]	1.37 ± 0.00	1.39 ± 0.01	
